Assay results taken from US12594271B2, “Combination therapy for cancer” (Health Research, Inc., priority 2019, dated 2026).
“Also recorded” adds a separate entry of the source.

What was measured:
MDSCs [1] = assay: MDSC suppression assay: inhibition of T cell proliferation by in vitro generated MDSCs; type: cell-based, mouse
Protocol: FIG. 2. […] (A) MDSCs were produced in vitro from mouse bone marrow cells using GM-CSF and G-CSF±BRQ (1 μM) or ATRA (10 μM) at the start of the 4-day culture. Cells tested for their ability to inhibit T cell proliferation (1:1 ratio), as in FIG. 5. Fresh BM=Uncultured bone marrow cells. (B) Similar to A, except that uridine (200 μM) was added to rescue the effect of BRQ. (C) Expression of IRF8 (upper) or SLFN4 (lower) was analyzed by qRT-PCR in Lin^− BM cells cultured as in A for 2 days. Data normalized to the vehicle.
(§1) In Vitro Development of MDSCs. Unfractionated mouse bone marrow cells were cultured in dishes with recombinant mouse G-CSF and recombinant mouse GM-CSF (40 ng/ml of each cytokine) for 96 hours to produce MDSCs, as described (Marigo et al. Immunity 32:790-802, 2010). After culture, cells were collected and analyzed by flow cytometry for the indicated cell surface markers. Uncultured or fresh bone marrow (BM) cells served as a negative control.
Cultured Cells Develop Potent Immunosuppressive Capacity. Using the methods described for FIG. 4, experiments were then performed to determine whether the cells generated from this BM culture system functionally behaved as MDSCs, based on their ability to inhibit T cell proliferation in vitro. To that end, fresh BM (i.e., no in vitro culture) or cultured BM cells (i.e., MDSCs at two different MDSC-to-T cell ratios of 1:1 or 1:2) were co-mixed in 96-well plates with CellTrace Violet (CTV)—stained syngeneic naïve splenocytes as a source of T cells and stimulated with or without soluble agonistic anti-CD3 monoclonal antibody (mAb) (1 μg/ml) for 72 hours. After co-culture, CTV dye dilution in the gated CD4^+ or CD8^+ T cell fractions within the splenocyte populations was analyzed by flow cytometry to determine the extent of proliferation based on dye dilution. In FIG. 5, top panels show CTV dye dilution, as determined by flow cytometry and depicted as a histogram; bottom panels indicate the percentage of proliferation, based on quantification of the histogram data. […]

MDSCs [2] = assay: Phenotype, viability and morphology of in vitro generated MDSC cultures; type: cell-based, mouse
Protocol: as §1
Effect of BRQ Treatment on In Vitro Generated MDSCs. As in FIG. 4, MDSCs were generated in vitro, but now with or without (vehicle) the concurrent addition of brequinar (BRQ) (1 μM) at the start of the culture. After culture, cells were collected and analyzed by flow cytometry for the indicated cell surface markers. Uncultured (fresh) BM cells served as a negative control. Viable cells were enumerated by trypan blue dye exclusion (bottom left panel, % viability; bottom right panel, total viable cells recovered).
Cells Treated with BRQ Appear More Mature Morphologically and Phenotypically. Methods were the same as in FIG. 6. MDSCs were generated in vitro with or without BRQ. Afterwards, cells were collected and analyzed morphologically by Wright-Giemsa staining of cytospin-prepared slides. Left top panel, representative photomicrograph images [(arrows indicate representative immature myeloid (−BRQ) vs. mature (+BRQ) cell types)]; Left bottom panel, the % of each cell type was quantified as follows. Cells were classified into 3 main morphologic cell types, as shown. For the lower panel, 300 cells were analyzed per random field and 3 separate fields were analyzed (totaling 900 cells). The average number of each cell type was determined by dividing by 3, and the data were converted to a percentage within the total population. Using the in vitro assay described previously to produce MDSCs, the CD11b^+Ly6C^lo Ly6G^+ subset (also known as PMN-MDSCs) was analyzed for cell surface CD101 expression by flow cytometry on cultures without BRQ (labeled here as ‘GM-CSF+G-CSF’) or with BRQ. Isotype control staining was included as a negative control for the specificity of CD101 reactivity. Middle panel, representative histogram; right panel, mean fluorescence intensity (MFI) data quantified from 2 separate experiments.

[3] = BRQ 1 μM, trypan blue dye exclusion
[4] = bone marrow cells cultured with BRQ, morphologic analyses
[5] = cultures with BRQ, Wright-Giemsa staining

Structure (SMILES): Cc1c(-c2ccc(-c3ccccc3F)cc2)nc2ccc(F)cc2c1C(=O)O [BRQ, 6-Fluoro-2-(2′-fluoro-[1,1′-biphenyl]-4-yl)-3-methylquinoline-4-carboxylic acid]
- ability of in vitro generated MDSCs to inhibit CD4+ or CD8+ T cell proliferation (MDSCs [1]; BRQ 1 μM at start of 4-day culture, MDSC:T cell 1:1): inhibits MDSC-mediated immune suppression in vitro; also recorded: more effective than ATRA in limiting the formation of immune suppressive cells in vitro; also recorded: significantly reduced the ability of these in vitro-generated MDSCs to inhibit T cell proliferation; also recorded: mitigates MDSC suppressive activity; also recorded: significantly less suppressive to CD4^+ or CD8^+ T cell proliferation compared to cultures containing ATRA
- ability of in vitro generated MDSCs to inhibit T cell proliferation, uridine rescue (MDSCs [1]; BRQ 1 μM plus extracellular uridine 200 μM): exogenously supplied uridine blocked the effect of BRQ; also recorded: the addition of uridine antagonized the effect of BRQ and restored MDSC suppressive activity
- generation of CD11b+Gr-1+ cells (MDSCs [2]; BRQ 1 μM, flow cytometry): did not substantially alter
- cell viability (MDSCs [2]; [3]): not significantly altered
- number of live cells recovered (MDSCs [2]; [3]): substantially reduced
- mature myeloid cells (mainly neutrophils and macrophages) (MDSCs [2]; [4]): corresponding increase in mature myeloid cells
- reduction in immature myeloid cells (MDSCs [2]; [4]): 75%
- immature cell types (MDSCs [2]; [5]): reduction in immature cell types
- proportion of macrophages (MDSCs [2]; [5]): no demonstrable effect
- proportion of segmented neutrophils (MDSCs [2]; [5]): increased the proportion of segmented neutrophils
- cell surface CD101 expression (MFI) on CD11b+Ly6CloLy6G+ subset (MDSCs [2]; cultures with BRQ, flow cytometry): significantly increased the expression of CD101
